Read-outs that look alike come from different tables or passages of the source.
Legend:
RXF393 = experiment: NCI five-dose assay; type: cell-based, human; conditions: RXF393, Renal cancer
OVCAR-8 = experiment: NCI five-dose assay; type: cell-based, human; conditions: OVCAR-8, Ovarian cancer
SR = experiment: NCI five-dose assay; type: cell-based, human; conditions: Leukemia
NCI-H322M = experiment: NCI five-dose assay; type: cell-based, human; conditions: Non-small cell lung cancer
OVCAR-5 = experiment: NCI five-dose assay; type: cell-based, human; conditions: OVCAR-5, Ovarian cancer
PC-3 = experiment: NCI five-dose assay; type: cell-based, human; conditions: PC-3, Prostate cancer
M14 = experiment: NCI five-dose assay; type: cell-based, human; conditions: M14, Melanoma
NCI-H522 = experiment: NCI five-dose assay; type: cell-based, human; conditions: NCI-H522, Non-small cell lung cancer
SN12C = experiment: NCI five-dose assay; type: cell-based, human; conditions: Renal cancer
NCI/ADR-RES = experiment: NCI five-dose assay; type: cell-based, human; conditions: Ovarian cancer
MDA/MB-231-ATCC = experiment: NCI five-dose assay; type: cell-based, human; conditions: Breast cancer
786-0 = experiment: NCI five-dose assay; type: cell-based, human; conditions: 786-0, Renal cancer
Colon cancer subpanel = experiment: NCI five-dose assay, subpanel mean; type: cell-based, human
Ovarian cancer subpanel = experiment: NCI five-dose assay, subpanel mean; type: cell-based, human
[1] = tested on: panel of 60 human tumor cell lines; experiment: NCI five-dose assay, full panel; type: cell-based
SF-539 = experiment: NCI five-dose assay; type: cell-based, human; conditions: SF-539, CNS cancer
CNS cancer subpanel = experiment: NCI five-dose assay, subpanel mean; type: cell-based, human
NCI-H226 = experiment: NCI five-dose assay; type: cell-based, human; conditions: NCI-H226, Non-small cell lung cancer
SK-MEL-2 = experiment: NCI five-dose assay; type: cell-based, human; conditions: SK-MEL-2, Melanoma
SW-620 = experiment: NCI five-dose assay; type: cell-based, human; conditions: SW-620, Colon cancer
A549/ATCC = experiment: NCI five-dose assay; type: cell-based, human; conditions: Non-small cell lung cancer
NCI-H460 = experiment: NCI five-dose assay; type: cell-based, human; conditions: NCI-H460, Non-small cell lung cancer
SK-OV-3 = experiment: NCI five-dose assay; type: cell-based, human; conditions: SK-OV-3, Ovarian cancer
IGROV1 = experiment: NCI five-dose assay; type: cell-based, human; conditions: IGROV1, Ovarian cancer
CCRF-CEM = experiment: NCI five-dose assay; type: cell-based, human; conditions: Leukemia
A498 = experiment: NCI five-dose assay; type: cell-based, human; conditions: A498, Renal cancer
Prostate cancer subpanel = experiment: NCI five-dose assay, subpanel mean; type: cell-based, human
[2] = Homo sapiens, read-out: GI50 Conc. per Cell Lines
[3] = Homo sapiens, 48 h, read-out: LC50 (the source's name)

**Q.** Which results are given for `Cc1ccc(/C(CSc2nnc(-c3c[nH]c4ccccc34)n2-c2ccccc2)=N/O)cc1` [Compound 7h, (Z)-2-((5-(1H-Indol-3-yl)-4-phenyl-4H-1,2,4-triazol-3-yl)thio)-1-(p-tolyl)ethanone Oxime]?
**A.** LC50 (concentration killing 50% of cells) (RXF393; Homo sapiens, RXF 393, 48 h): 7.65 µM; GI50 (RXF393; Homo sapiens, RXF 393, read-out: GI50 Conc. per Cell Lines): 1.85 µM; TGI Conc. per Cell Lines (RXF393): 3.76 µM; GI50 (OVCAR-8; [2]): 2.19 µM; TGI Conc. per Cell Lines (OVCAR-8): 4.89 µM; CC50 (SR; [3]): > 100 µM; TGI Conc. per Cell Lines (SR): ˃100 µM; CC50 (NCI-H322M; [3]): > 100 µM; GI50 (NCI-H322M; [2]): 3.54 µM; TGI Conc. per Cell Lines (NCI-H322M): 19.80 µM; LC50 (OVCAR-5; Homo sapiens, 48 h): 5.73 µM; GI50 (OVCAR-5; [2]): 1.69 µM; TGI Conc. per Cell Lines (OVCAR-5): 3.11 µM; GI50 (PC-3; [2]): 1.77 µM; TGI Conc. per Cell Lines (PC-3): 3.74 µM; GI50 (M14; [2]): 1.79 µM; TGI Conc. per Cell Lines (M14): 3.86 µM; CC50 (NCI-H522; [3]): > 100 µM; GI50 (NCI-H522; [2]): 2.24 µM; TGI Conc. per Cell Lines (NCI-H522): 6.04 µM; CC50 (SN12C; [3]): 36.7 µM; GI50 (SN12C; [2]): 2.33 µM; TGI Conc. per Cell Lines (SN12C): 6.80 µM; LC50 (NCI/ADR-RES; Homo sapiens, 48 h): 7.59 µM; GI50 (NCI/ADR-RES; [2]): 2 µM; TGI Conc. per Cell Lines (NCI/ADR-RES): 3.90 µM; TGI Conc. per Cell Lines (MDA/MB-231-ATCC): 3.33 µM; LC50 (MDA/MB-231-ATCC; Homo sapiens, 48 h): 6.27 µM; GI50 (MDA/MB-231-ATCC; [2]): 1.77 µM; TGI Conc. per Cell Lines (786-0): 31.40 µM; LC50 (50% lethal concentration) (786-0; Homo sapiens, 48 h): 98.1 µM; GI50 (786-0; [2]): 10 µM; GI50 Selectivity Ratio (MID a/MID b) (Colon cancer subpanel; Colon cancer subpanel): 0.959; GI50 (Colon cancer subpanel; Homo sapiens, average sensitivity of all cell lines of the Colon cancer subpanel, read-out: GI50 Subpanel MID b): 3.13 µM; GI50 (Ovarian cancer subpanel; Homo sapiens, average sensitivity of all cell lines of the Ovarian cancer subpanel, read-out: GI50 Subpanel MID b): 2.24 µM; GI50 Selectivity Ratio (MID a/MID b) (Ovarian cancer subpanel; Ovarian cancer subpanel): 1.34; GI50 ([1]; average sensitivity of all cell lines, read-out: GI50 MID a): 3 µM; GI50 ([1]; most of the tested cell lines across nine subpanels, read-out: GI50 values, range across nine subpanels): 1.85 to 5.76 µM; CC50 (SF-539; [3]): 9.43 µM; GI50 (SF-539; [2]): 2.06 µM; TGI Conc. per Cell Lines (SF-539): 4.41 µM; GI50 Selectivity Ratio (MID a/MID b) (CNS cancer subpanel; CNS cancer subpanel): 1.04; GI50 (CNS cancer subpanel; Homo sapiens, average sensitivity of all cell lines of the CNS cancer subpanel, read-out: GI50 Subpanel MID b): 2.86 µM; CC50 (NCI-H226; [3]): 6.91 µM; GI50 (NCI-H226; [2]): 1.63 µM; TGI Conc. per Cell Lines (NCI-H226): 3.36 µM; CC50 (SK-MEL-2; [3]): > 100 µM; GI50 (SK-MEL-2; [2]): 2.88 µM; TGI Conc. per Cell Lines (SK-MEL-2): 8.96 µM; CC50 (SW-620; [3]): 7.04 µM; GI50 (SW-620; [2]): 1.79 µM; TGI Conc. per Cell Lines (SW-620): 3.55 µM; CC50 (A549/ATCC; [3]): > 100 µM; GI50 (A549/ATCC; [2]): 3.55 µM; TGI Conc. per Cell Lines (A549/ATCC): 69.70 µM; CC50 (NCI-H460; [3]): 6.55 µM; GI50 (NCI-H460; [2]): 3.18 µM; TGI Conc. per Cell Lines (NCI-H460): 12.20 µM; CC50 (SK-OV-3; [3]): 7.89 µM; GI50 (SK-OV-3; [2]): 1.68 µM; TGI Conc. per Cell Lines (SK-OV-3): 3.64 µM; CC50 (IGROV1; Homo sapiens, IGROV-1, 48 h, read-out: LC50 (the source's name)): 9.07 µM; GI50 (IGROV1; Homo sapiens, IGROV-1, read-out: GI50 Conc. per Cell Lines): 2.09 µM; TGI Conc. per Cell Lines (IGROV1): 4.35 µM; CC50 (CCRF-CEM; [3]): > 100 µM; GI50 (CCRF-CEM; [2]): 2.14 µM; TGI Conc. per Cell Lines (CCRF-CEM): 4.98 µM; TGI Conc. per Cell Lines (A498): 89.10 µM; LC50 (A498; Homo sapiens, 48 h): > 100 µM; GI50 (A498; [2]): 24.1 µM; GI50 (Prostate cancer subpanel; Homo sapiens, average sensitivity of all cell lines of the Prostate cancer subpanel, read-out: GI50 Subpanel MID b): 1.85 µM; GI50 Selectivity Ratio (MID a/MID b) (Prostate cancer subpanel; Prostate cancer subpanel): 1.61
